Data: PubChem BioAssay (NCI)
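96-well plates; 48 h exposure; 5 concentrations. Endpoints by linear interpolation between flanking doses. Not reached: highest tested concentration assigned. GI50 = concentration required for 50% inhibition of growth. At the TGI there is no net growth.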 Where a SMILES comes first, the peptide text is derived from it. Bridges are numbered along the chain shown (N, C = ends). [ ]: non-standard residue; d: D form. The star is where a group is joined. ξ: configuration not given here. ξDab(CH2SO3H) = NC(CCNCS(=O)(=O)O)C(=O)O; Heptanoyl(6-Me) = CC(C)CCCCC(=O)*; Dab = NCC[CH](N)C(=O)O

Tests used:
Assay in all cases: NCI anticancer screen, dose series, 48 h
MDA-MB-435 = tested on: MDA-MB-435
OVCAR-3 ovarian = tested on: OVCAR-3 ovarian
HS 578T breast = tested on: HS 578T breast
UACC-257 melanoma = tested on: UACC-257 melanoma
CAKI-1 renal = tested on: CAKI-1 renal
SW-620 colon = tested on: SW-620 colon
SK-MEL-28 melanoma = tested on: SK-MEL-28 melanoma
T-47D breast = tested on: T-47D breast
MOLT-4 leukemia = tested on: MOLT-4 leukemia
DU-145 prostate = tested on: DU-145 prostate
UO-31 renal = tested on: UO-31 renal
SK-OV-3 ovarian = tested on: SK-OV-3 ovarian
786-0 renal = tested on: 786-0 renal
SF-539 CNS = tested on: SF-539 CNS
A549 NSCLC = tested on: A549 NSCLC
OVCAR-8 ovarian = tested on: OVCAR-8 ovarian
NCI-H23 lung = tested on: NCI-H23 lung
UACC-62 melanoma = tested on: UACC-62 melanoma
NCI-H460 lung = tested on: NCI-H460 lung
SK-MEL-2 melanoma = tested on: SK-MEL-2 melanoma
SK-MEL-5 melanoma = tested on: SK-MEL-5 melanoma
LOX IMVI melanoma = tested on: LOX IMVI melanoma
SR leukemia = tested on: SR leukemia
EKVX NSCLC = tested on: EKVX NSCLC
HCT-15 colon = tested on: HCT-15 colon
SNB-75 CNS = tested on: SNB-75 CNS
MALME-3M melanoma = tested on: MALME-3M melanoma
RXF 393 renal = tested on: RXF 393 renal
SN12C renal = tested on: SN12C renal
SNB-19 CNS = tested on: SNB-19 CNS
PC-3 prostate = tested on: PC-3 prostate
OVCAR-5 ovarian = tested on: OVCAR-5 ovarian
HOP-62 NSCLC = tested on: HOP-62 NSCLC
SF-295 CNS = tested on: SF-295 CNS
MCF7 breast = tested on: MCF7 breast
HT29 colon = tested on: HT29 colon
NCI-H226 lung = tested on: NCI-H226 lung
A498 renal = tested on: A498 renal
NCI/ADR-RES ovarian = tested on: NCI/ADR-RES ovarian
KM12 colon = tested on: KM12 colon
COLO 205 colon = tested on: COLO 205 colon
HL-60(TB) leukemia = tested on: HL-60(TB) leukemia
HCT-116 colon = tested on: HCT-116 colon
HCC-2998 colon = tested on: HCC-2998 colon
MDA-MB-231 breast = tested on: MDA-MB-231 breast
TK-10 renal = tested on: TK-10 renal
ACHN renal = tested on: ACHN renal
M14 melanoma = tested on: M14 melanoma
U251 CNS = tested on: U251 CNS
NCI-H522 lung = tested on: NCI-H522 lung
OVCAR-4 ovarian = tested on: OVCAR-4 ovarian
SF-268 CNS = tested on: SF-268 CNS
IGROV1 ovarian = tested on: IGROV1 ovarian
BT-549 breast = tested on: BT-549 breast

CCC(C)C1NC(=O)C(CCNCS(=O)(=O)O)NC(=O)C(NC(=O)C(CCNCS(=O)(=O)O)NC(=O)C(NC(=O)C(CCNCS(=O)(=O)O)NC(=O)CCCCC(C)C)C(C)O)CCNC(=O)C(C(C)O)NC(=O)C(CCNCS(=O)(=O)O)NC(=O)C(CCNCS(=O)(=O)O)NC(=O)C(C(C)CC)NC1=O (stereo not drawn) ({Heptanoyl(6-Me)}-[ξDab(CH2SO3H)]T[ξDab(CH2SO3H)][Dab][ξDab(CH2SO3H)]II[ξDab(CH2SO3H)][ξDab(CH2SO3H)]T; lactam 4-C; configuration not given here)
GI50 (MDA-MB-435): 0.93 µM | TGI (MDA-MB-435): 5.02 µM | GI50 (OVCAR-3 ovarian): 2.88 µM | TGI (OVCAR-3 ovarian): 8.06 µM | GI50 (HS 578T breast): 7.65 µM | TGI (HS 578T breast): > 25 µM | GI50 (UACC-257 melanoma): 11.7 µM | TGI (UACC-257 melanoma): > 25 µM | GI50 (CAKI-1 renal): > 25 µM | TGI (CAKI-1 renal): > 25 µM | GI50 (SW-620 colon): 4 µM | TGI (SW-620 colon): > 25 µM | GI50 (SK-MEL-28 melanoma): 2.72 µM | TGI (SK-MEL-28 melanoma): > 25 µM | GI50 (T-47D breast): > 25 µM | TGI (T-47D breast): > 25 µM | GI50 (MOLT-4 leukemia): 8.47 µM | TGI (MOLT-4 leukemia): > 25 µM | GI50 (DU-145 prostate): 7.09 µM | TGI (DU-145 prostate): 23.2 µM | GI50 (UO-31 renal): > 25 µM | TGI (UO-31 renal): > 25 µM | GI50 (SK-OV-3 ovarian): 8.13 µM | TGI (SK-OV-3 ovarian): > 25 µM | GI50 (786-0 renal): 13 µM | TGI (786-0 renal): > 25 µM | GI50 (SF-539 CNS): 7.16 µM | TGI (SF-539 CNS): > 25 µM | GI50 (A549 NSCLC): > 25 µM | TGI (A549 NSCLC): > 25 µM | GI50 (OVCAR-8 ovarian): 9.66 µM | TGI (OVCAR-8 ovarian): > 25 µM | GI50 (NCI-H23 lung): 7.41 µM | TGI (NCI-H23 lung): > 25 µM | GI50 (UACC-62 melanoma): 7.44 µM | TGI (UACC-62 melanoma): > 25 µM | GI50 (NCI-H460 lung): 6.86 µM | TGI (NCI-H460 lung): 22.1 µM | GI50 (SK-MEL-2 melanoma): 4.9 µM | TGI (SK-MEL-2 melanoma): > 25 µM | GI50 (SK-MEL-5 melanoma): 1.96 µM | TGI (SK-MEL-5 melanoma): 11.4 µM | GI50 (LOX IMVI melanoma): 5.21 µM | TGI (LOX IMVI melanoma): > 25 µM | GI50 (SR leukemia): 1.32 µM | TGI (SR leukemia): > 25 µM | GI50 (EKVX NSCLC): > 25 µM | TGI (EKVX NSCLC): > 25 µM | GI50 (HCT-15 colon): > 25 µM | TGI (HCT-15 colon): > 25 µM | GI50 (SNB-75 CNS): 1.58 µM | TGI (SNB-75 CNS): > 25 µM | GI50 (MALME-3M melanoma): > 25 µM | TGI (MALME-3M melanoma): > 25 µM | GI50 (RXF 393 renal): 7.47 µM | TGI (RXF 393 renal): > 25 µM | GI50 (SN12C renal): 11.2 µM | TGI (SN12C renal): > 25 µM | GI50 (SNB-19 CNS): 11.6 µM | TGI (SNB-19 CNS): > 25 µM | GI50 (PC-3 prostate): 7.97 µM | TGI (PC-3 prostate): > 25 µM | GI50 (OVCAR-5 ovarian): 24 µM | TGI (OVCAR-5 ovarian): > 25 µM | GI50 (HOP-62 NSCLC): 8.74 µM | TGI (HOP-62 NSCLC): > 25 µM | GI50 (SF-295 CNS): 6.66 µM | TGI (SF-295 CNS): > 25 µM | GI50 (MCF7 breast): 4.71 µM | TGI (MCF7 breast): > 25 µM | GI50 (HT29 colon): 7.92 µM | TGI (HT29 colon): > 25 µM | GI50 (NCI-H226 lung): 8.25 µM | TGI (NCI-H226 lung): > 25 µM | GI50 (A498 renal): 7.07 µM | TGI (A498 renal): > 25 µM | GI50 (NCI/ADR-RES ovarian): > 25 µM | TGI (NCI/ADR-RES ovarian): > 25 µM | GI50 (KM12 colon): 2.99 µM | TGI (KM12 colon): 9.55 µM | GI50 (COLO 205 colon): 3.26 µM | TGI (COLO 205 colon): 8.85 µM | GI50 (HL-60(TB) leukemia): 5.23 µM | TGI (HL-60(TB) leukemia): 16.9 µM | GI50 (HCT-116 colon): 7.33 µM | TGI (HCT-116 colon): > 25 µM | GI50 (HCC-2998 colon): 5.28 µM | TGI (HCC-2998 colon): 14.2 µM | GI50 (MDA-MB-231 breast): 5.82 µM | TGI (MDA-MB-231 breast): > 25 µM | GI50 (TK-10 renal): > 25 µM | TGI (TK-10 renal): > 25 µM | GI50 (ACHN renal): > 25 µM | TGI (ACHN renal): > 25 µM | GI50 (M14 melanoma): 5.72 µM | TGI (M14 melanoma): 20.6 µM | GI50 (U251 CNS): 8.05 µM | TGI (U251 CNS): > 25 µM | GI50 (NCI-H522 lung): 3.84 µM | TGI (NCI-H522 lung): 14.1 µM | GI50 (OVCAR-4 ovarian): 11.3 µM | TGI (OVCAR-4 ovarian): > 25 µM | GI50 (SF-268 CNS): 6.88 µM | TGI (SF-268 CNS): > 25 µM | GI50 (IGROV1 ovarian): 13.1 µM | TGI (IGROV1 ovarian): > 25 µM | GI50 (BT-549 breast): 6.27 µM | TGI (BT-549 breast): > 25 µM
